Measured values published in patent US6881421B1 (Bioalliance Pharma S.A., priority 1998, dated 2005).
Converted amounts (≈) assume the structure as drawn.

What was measured:
[1] = Titration of progesterone/steroid content of nanoparticles by HPLC; type: physicochemical; conditions: for Drug load: average of 3 values; for Increase in content load (number of times): PIBCA/HP CD particles versus PIBCA without HP CD; for Content of combined PIBCA and HP CD particles / Content of PIBCA nanoparticles without HP CD: average of three preparations; for Content of PIBCA nanoparticles without HP CD: reference particles
Method: (§1) The different suspensions of nanoparticles were centrifuged at 82,000 g for 30 to 40 min at 25° C. (Beckman, L5-65 Ultracentrifuge, 70.1 Ti type rotor) and resuspended in 5 ml distilled water. The suspensions were finally freeze-dried (Christ HED Freeze Drier, Germany).
To titrate the progesterone content in the nanoparticles, the freeze-dried products were diluted in acetonitrile of HPLC grade and the solutions analyzed by high performance liquid chromatography (HPLC). The HPLC system consisted of a 510 solvent delivery unit (Waters-Saint-Quentin-en-Yvelines, France), a WISP 712 automatic sampler, a column Nova-Pak C18 4 μm column (250×4.6 mm), a 486 absorbency detector which operated at 245 NM and interfaced with a 746 data module. The flow rate was 1.0 ml/min and the mobile phase made up of water and acetonitrile (40:60) for which the retention time was approximately 12 min. The results were expressed as an average of three titrations.
The different steroids were determined as in Example 6 so that the titration of these different substances was conducted under the same analytical conditions.

[2] = In vitro release of HPβCD from PIBCA/HPβCD nanoparticles; type: physicochemical; conditions: ABB medium, 37° C.; during the first hour
Method: Study of the release of HPBCD was conducted as for progesterone in ABB medium with quantification of the CD content after ultracentrifuging, by complexation with phenolphthalein as described above. The CD concentration at 100% release was approximately 100 μg/ml.

[3] = Titration of cyclodextrin content of nanoparticles (phenolphthalein spectrophotometry); type: physicochemical
Method: as §1
For quantification of HPβCD, the freeze-dried nanoparticles were hydrolyzed with 0.2 M NaOH for 12 hours, the pH adjusted to 7.0 (±0.5) and the HPBCD quantified by spectrophotometric titration of the discoloring of phenolphthalein solutions in the presence of HPβCD. Phenolphthalein formed stable, colorless inclusion complexes with cyclodextrins (CD). Consequently, the color intensity of a phenolphthalein solution in alkaline borate buffer decreased in proportion to the quantity of CD in solution.
Reference solutions were prepared by diluting mother solutions of CD in alkaline borate buffer solution with pH 10.0 containing 2% ethanol solution of 0.006 M phenolphthalein. The reference curves (λ=550 nm) are linear for CD concentrations ranging from 1 to 100 μg/ml. To the samples were added 4 parts buffer solution containing phenolphthalein and they were then tested directly.
The HPβCD was also titrated as in Example 6.

[4] = In vitro release of progesterone from PIBCA/HPβCD nanoparticles; type: physicochemical; conditions: for progesterone released, second slower phase / progesterone released, initial rapid release: ABB pH 8.4, 37° C.; for progesterone released, initial rapid release: first hour; for progesterone released: ABB with 40% PEG 400
Method: A weighed quantity of freeze-dried nanoparticles (containing 1% (w/v) of glucose) was placed in a bottle containing 15 ml of alkaline borate buffer solution (ABB) (pH 8.4) or of ABB containing esterases (25 and 100 IU) or of ABB/poly(ethyleneglycol) 400 (PEG) at 20 and 40% (v/v). The samples were magnetically stirred at 200 r/min and 37° C., and taken at predetermined intervals. The suspensions were centrifuged at 82,000 g for 30 minutes at 20° C., then the progesterone content of the supernatant is determined for all media and the HPβCD content for the PEG media. The progesterone content is determined using HPLC as described above with injection of 100 μl for the samples incubated in ABB media and 20 μl for the PEG media.
All the tests are conducted under conditions such 15 that the active ingredient concentration during the release stage is maintained below 10% saturation.

[5] = cited from earlier work
[6] = Solubility of progesterone; type: physicochemical; conditions: polymerization medium, aqueous with cosolvent or surfactant or cyclodextrin; diluted hydrochloric acid (pH 2.0), 1% (w/v) poloxamer 188; read-out: maximum solubility in the polymerization medium
[7] = PIBCA nanoparticles without HPβCD
[8] = PIBCA/HPBCD nanoparticles (10 mg/ml HPβCD)

Structure (SMILES) | Drug load [1, 7] [mg/g] | Increase in content load (number of times) [1] | Drug load [1, 8] [mg/g] | Content of combined PIBCA and HP CD particles [1] [mmol/g] | Content of PIBCA nanoparticles without HP CD [1] [mmol/g] | other results
C#C[C@]1(O)CC[C@H]2[C@@H]3CCC4=Cc5oncc5C[C@]4(C)[C@H]3CC[C@@]21C [Danazol, danazol] | 0.34 | 32.9 number of times | 11.2 | 33.19 | 1.01 | 
CC(O)COC[C@H]1O[C@@H]2O[C@H]3[C@H](O)[C@@H](O)[C@@H](O[C@H]4[C@H](O)[C@@H](O)[C@@H](O[C@H]5[C@H](O)[C@@H](O)[C@@H](O[C@H]6[C@H](O)[C@@H](O)[C@@H](O[C@H]7[C@H](O)[C@@H](O)[C@@H](O[C@H]8[C@H](O)[C@@H](O)[C@@H](O[C@H]1[C@H](O)[C@H]2O)O[C@@H]8COCC(C)O)O[C@@H]7COCC(C)O)O[C@@H]6COCC(C)O)O[C@@H]5COCC(C)O)O[C@@H]4COCC(C)O)O[C@@H]3COCC(C)O (stereo partly drawn) [HPβCD, 2-hydroxypropyl-β-cyclodextrin] |  |  |  |  |  | cyclodextrin released [2]: ~100%; quantity of HPβCD associated with the particles ([3]; equal initial masses of HPβCD and isobutylcyanoacrylate in the polymerization medium): approximately 35%; quantity of HPβCD associated with the particles ([3]; maximum reached with increasing HPβCD (FIG. 3)): about 60 % of particle weight
C[C@]12CCC(=O)C=C1CC[C@@H]1[C@@H]2[C@@H](O)C[C@@]2(C)[C@H]1CC[C@]2(O)C(=O)CO [Hydrocortisone, hydrocortisone] | 2.19 | 7.0 number of times | 15.3 | 42.21 | 6.04 | 
CC(=O)O[C@]1(C(C)=O)CC[C@H]2[C@@H]3C=C(C)C4=CC(=O)CC[C@]4(C)[C@H]3CC[C@@]21C [Megestrolacetate, megestrol acetate] | 0.25 | 5.6 number of times | 1.4 | 3.64 | 0.65 | 
C[C@]12C=CC(=O)C=C1CC[C@@H]1[C@@H]2[C@@H](O)C[C@@]2(C)[C@H]1CC[C@]2(O)C(=O)CO [Prednisolone, prednisolone] | 0.12 | 129.2 number of times | 15.5 | 43.00 | 0.33 | Increase in content load (number of times) ([1]; listed as prednisolone): 129 number of times
CC(=O)[C@H]1CC[C@H]2[C@@H]3CCC4=CC(=O)CC[C@]4(C)[C@H]3CC[C@]12C [Progesterone, progesterone] | 0.79 | 27.7 number of times | 24.0 | 69.60 | 2.51 | progesterone content ([1]; larger particles (170 nm)): 10.5 µg/mg; progesterone content of particles ([1]; prepared in the presence of HPβCD, highest content (FIG. 5)): 45 μg/mg of particles; active ingredient content ([1]; smallest nanoparticles (70 nm)): 24 µg/mg; progesterone released, second slower phase ([4]; 70 nm nanoparticles): ~62%; progesterone released, initial rapid release ([4]; 70 nm nanoparticles): ~34%; progesterone released, second slower phase ([4]; 150 nm nanoparticles): approximately 35%; progesterone released, initial rapid release ([4]; 150 nm nanoparticles): approximately 10%; progesterone released ([4]; first-named formulation (150 nm)): approximately 75%; progesterone released ([4]; second-named formulation (70 nm)): ~82%; quantity of released progesterone ([4]; ABB with esterases (25 and 100 IU), both tested formulations): ~100%; water-solubility [5]: 10 µg/mL; solubility [6]: ~60 µg/mL (≈ 191 µM)
CC(=O)S[C@@H]1CC2=CC(=O)CC[C@]2(C)[C@H]2CC[C@@]3(C)[C@@H](CC[C@@]34CCC(=O)O4)[C@H]12 [Spironolactone, spironolactone] | 7.65 | 6.9 number of times | 53.0 | 127.23 | 18.36 | 
C[C@]12CC[C@H]3[C@@H](CCC4=CC(=O)CC[C@@]43C)[C@@H]1CC[C@@H]2O [Testosterone, testosterone] | 2.27 | 8.6 number of times | 19.5 | 67.6 | 7.87 | 
